Reference: patent US20070015774A1, “Quinazoline derivatives useful in cancer treatment” (Schering Corporation, priority 2005, published 2007)
Where two headings read alike, the source gives them in different places.

Target: GST-p53 DNA binding domain (aa 92-aa 312) (Homo sapiens, UniProt P04637)
Test: Scintillation Proximity Assay (SPA), displacement of 3H STANDARD COMPOUND
Details: for remaining activity at 2 µg/mL: 1 h, 2 ug/mL of drug, read-out: SPA ASSAY % Residual T @ 2 ug/mL of drug (Average of)
Excerpt: Most of the oncogenic mutants of the tumor suppressor protein p53 lack sequence specific DNA binding activity at physiological temperature due to conformational changes in the DNA binding domain. Small molecules and peptide which bind to the p53 DNA binding domain stabilize the conformation and restore DNA binding activity to mutant p53 protein (Science 286, 2507-2510, 1999; PNAS, 99, 937-942, 2002). Using ^3H STANDARD COMPOUND (structure shown below; carbon atom with * is the atom labelled), [drawing 1366] a radio labeled small molecule which binds to p53, and the GST-p53 DNA binding domain (aa 92-aa 312), we have developed a quantitative screening assay. The assay is based on Scintillation Proximity Assay (SPA) technology, developed by Amersham Biosciences to measure molecular interactions. Briefly, the complex of GST-p53, ^3H STANDARD and Glutathione-SPA beads (Amersham Biosciences) are incubated with mixing for 1 hr at room temperature in the presence of the novel compounds to be screened. The signal is read on Microbeta. The compounds which have the ability to displace ^3H STANDARD COMPOUND are selected. Such molecules will stabilize the conformation and restore DNA binding activity to mutant p53 protein.
The above assay was used to determine the ability of the compounds of this invention to directly bind to p53 core and restore DNA binding activity to mutant p53 and the results for selected compounds have been given above in various tables.
A letter rating corresponding to % Residual total binding (T) @ 2 ug/mL of drug (i.e., compound of the present invention) from this assay have been assigned as follows: Compounds having % Residual T values of from 0% to less than 20% have been assigned the letter “A”. Compounds having % Residual T values of from 20% to less than 40% have been assigned the letter “B”. Compounds having % Residual T values of from 40% to less than 80% have been assigned the letter “C”. Compounds having % Residual T values of 80% or higher have been assigned the letter “D”. The exact % Residual T values @ 2 ug/mL for some illustrative compounds are shown below: […]

[1] = letter rating, number in brackets = number of determinations averaged
[2] = exact values, number in brackets = number of determinations averaged
[3] = residual total binding of 3H STANDARD COMPOUND, lower is better
[4] = residual total binding of 3H STANDARD COMPOUND

GST-p53 DNA binding domain (aa 92-aa 312), sequence (P04637 92-312): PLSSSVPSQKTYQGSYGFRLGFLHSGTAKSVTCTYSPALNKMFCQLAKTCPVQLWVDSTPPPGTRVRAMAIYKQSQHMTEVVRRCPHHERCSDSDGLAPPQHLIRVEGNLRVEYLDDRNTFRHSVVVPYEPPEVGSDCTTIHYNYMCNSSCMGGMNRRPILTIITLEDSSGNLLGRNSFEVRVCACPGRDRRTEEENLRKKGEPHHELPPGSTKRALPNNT

remaining activity at 2 µg/mL [1] [%] | SMILES | also measured
40 to 80 | COC(=O)c1ccc(CN(C)Cc2nc(NCCCN(C)C)c3ccccc3n2)cc1 [38-46] | 
20 to 40 | CN(C)CCCNc1nc(CN(C)C2CCC3CCCCC3C2)nc2ccccc12 (stereo not drawn) [38-83] | remaining activity at 2 µg/mL [2]: 28.7%
≥ 80 | CN(C)CCCNc1nc(CN(C)Cc2ccc(-c3ccccc3)cc2)nc2ccccc12 [38-59] | 
40 to 80 | CC1CCC(N(C)Cc2nc(NCCCN(C)C)c3ccccc3n2)CC1 (stereo not drawn) [38-77] | 
≥ 80 | CN(C)CCCNc1nc(CN(C)C2CCC2)nc2ccccc12 [38-68] | 
0 to 20 | CCC(C)(C)C1CCC(N(C)Cc2nc(NCCCN(C)C)c3ccccc3n2)CC1 (stereo not drawn) [38-88] | remaining activity at 2 µg/mL [2]: 6.3%
40 to 80 | CN(C)CCCNc1nc(CN(C)C2CCCC(C(F)(F)F)C2)nc2ccccc12 (stereo not drawn) [38-86] | 
40 to 80 | CN(C)CCCNc1nc(CN(C)Cc2cccc3ccccc23)nc2ccccc12 [38-41] | 
20 to 40 | CN(C)CCCNc1nc(CN(C)C2CCN(C(=O)c3ccccc3)CC2)nc2ccccc12 [38-91] | remaining activity at 2 µg/mL [2]: 20.7%
20 to 40 | CN(C)CCCNc1nc(CN(C)C2CCC3(CC2)OCCO3)nc2ccccc12 [38-85] | remaining activity at 2 µg/mL [2]: 23%
40 to 80 | CN(C)CCCNc1nc(CN(C)Cc2ccccc2Sc2ccc(Cl)cc2)nc2ccccc12 [38-67] | 
40 to 80 | CN(C)CCCNc1nc(CN(C)Cc2ccc3ccccc3c2)nc2ccccc12 [38-42] | 
40 to 80 | CN(C)CCCNc1nc(CN(C)Cc2cccn2S(=O)(=O)c2ccccc2)nc2ccccc12 [38-66] | 
≥ 80 | CN(C)CCCNc1nc(CN(C)Cc2ccc(C#Cc3ccccc3)cc2)nc2ccccc12 [38-65] | 
40 to 80 | CN(C)CCCNc1nc(CN(C)Cc2cccc(C(F)(F)F)c2)nc2ccccc12 [38-48] | 
40 to 80 | CN(C)CCCNc1nc(CN(C)Cc2cccc3c2OCO3)nc2ccccc12 [38-37] | 
40 to 80 | CN(C)CCCNc1nc(CN(C)CC2CCCCC2)nc2ccccc12 [38-93] | 
0 to 20 | CN(C)CCCNc1nc(CN(C)C2CCC(C#N)(c3ccccc3)CC2)nc2ccccc12 (stereo not drawn) [38-90] | remaining activity at 2 µg/mL [2]: 5.5%
40 to 80 | CN(C)CCCNc1nc(CN(C)Cc2cc(Cl)ccc2Cl)nc2ccccc12 [38-52] | 
20 to 40 | Cc1c(CN(C)Cc2nc(NCCCN(C)C)c3ccccc3n2)sc2ccccc12 [38-56] | remaining activity at 2 µg/mL [2]: 23.6%
≥ 80 | CN(C)CCCNc1nc(CN(C)Cc2ccccc2OCC(=O)O)nc2ccccc12 [38-57] | 
40 to 80 | CN(C)CCCNc1nc(CN(C)C2CCSC2)nc2ccccc12 (stereo not drawn) [38-74] | 
40 to 80 | CN(C)CCCNc1nc(CN(C)Cc2ccc(Oc3ccccc3)cc2)nc2ccccc12 [38-64] | 
40 to 80 | CN(C)CCCNc1nc(CN(C)C2CCCCC2)nc2ccccc12 [38-72] | 
≥ 80 | CN(C)CCCNc1nc(CN(C)Cc2cccc(Cl)c2Cl)nc2ccccc12 [38-50] | 
40 to 80 | CC(=O)N1CCC(N(C)Cc2nc(NCCCN(C)C)c3ccccc3n2)CC1 [38-82] | 
20 to 40 | CN(C)CCCNc1nc(CN(C)C2CCC(c3ccccc3)CC2)nc2ccccc12 (stereo not drawn) [38-89] | remaining activity at 2 µg/mL [2]: 21%
0 to 20 | CC(C)C1CCC(N(C)Cc2nc(NCCCN(C)C)c3ccccc3n2)CC1 (stereo not drawn) [38-81] | remaining activity at 2 µg/mL [2]: 13.5%
≥ 80 | CN(C)CCCNc1nc(CN(C)C2C[C@@H]3CC[C@H]2C3)nc2ccccc12 (stereo partly drawn) [38-75] | 
40 to 80 | CN(C)CCCNc1nc(CN(C)C2CCC(C(F)(F)F)CC2)nc2ccccc12 (stereo not drawn) [38-87] | 

Continued, molecule first:

SMILES | remaining activity at 2 µg/mL [1] [%] | also measured
CN(C)CCCNc1nc(CN(C)Cc2ccoc2)nc2ccccc12 [38-4] | 40 to 80 | 
COc1ccc(Cl)cc1NC(=O)N(C)Cc1nc(NCCCN(C)C)c2ccccc2n1 [41-30] |  | remaining activity at 2 µg/mL (letter rating, Examples 41 table): 40 to 80%
CN(C)CCCNc1nc(CN(C)Cc2c(F)cccc2F)nc2ccccc12 [38-31] | 40 to 80 | 
CN(Cc1ccccc1)Cc1nc2ccccc2c(=O)[nH]1 [PE-17] |  | remaining activity at 2 µg/mL [2]: 36.8%
CN(C)CCCNc1nc(CN(C)Cc2ccco2)nc2ccccc12 [38-3] | 40 to 80 | 
COC(=O)[C@@H](Nc1nc(CNC(=O)Nc2cccc(Br)c2)nc2ccccc12)C(C)C [34-42] |  | remaining activity at 2 µg/mL [3]: 40 to 80%
COC(=O)[C@@H](Nc1nc(CNC(=O)Nc2ccccc2C(F)(F)F)nc2ccccc12)C(C)C [34-36] |  | remaining activity at 2 µg/mL [3]: 40 to 80%
CCOC(=O)C1CC1CN(C)Cc1nc(NCCCN(C)C)c2ccccc2n1 (stereo not drawn) [38-32] | 40 to 80 | 
CN(C)CCCNc1nc(CN(C)Cc2ccccc2C(=O)O)nc2ccccc12 [38-36] | ≥ 80 | 
COC(=O)[C@@H](Nc1nc(CNC(=O)Nc2ccc(Cl)c(Cl)c2)nc2ccccc12)C(C)C [34-39] |  | remaining activity at 2 µg/mL [3]: 40 to 80%
CN(C)CCCNc1nc(CN(C)Cc2cccc3cc[nH]c23)nc2ccccc12 [38-33] | 20 to 40 | remaining activity at 2 µg/mL [2]: 25.7%
CN(C)CCCNc1nc(CN(C)Cc2cccc(C#N)c2)nc2ccccc12 [38-19] | 40 to 80 | 
CN(C)CCC[C@H](N)C(N)=O [Preparative Example 42, 2(S)-(+)-AMINO-5-DIMETHYLAMINOPENTANAMIDE] |  | % Residual T @ 2 ug/mL according to scintillation proximity assay (SPA) [4]: D (% Residual T values of 80% or higher)
CN(C)CCCNc1nc(CN(C)Cc2ccccc2)nc2ccccc12 [PE-19] |  | remaining activity at 2 µg/mL [2]: 22.2%
COC(=O)[C@@H](Nc1nc(CNC(=O)Nc2cc(Cl)cc(Cl)c2)nc2ccccc12)C(C)C [34-40] |  | remaining activity at 2 µg/mL [3]: 40 to 80%
CN(C)CCCNc1nc(CN(C)Cc2ccccc2C#N)nc2ccccc12 [38-18] | 40 to 80 | 
CN(Cc1ccccc1)Cc1nc2ccccc2c(=O)[nH]1 [Preparative Example 17, 2-[(benzylmethylamino)methyl]-3H-quinazolin-4-one] |  | % Residual T @ 2 ug/mL according to scintillation proximity assay (SPA) [4]: B (% Residual T values of from 20% to less than 40%)

SMILES | remaining activity at 2 µg/mL [1] [%] | also measured
CNCc1nc(NCCCN(C)C)c2ccccc2n1 [Preparative Example 20, N,N-DIMETHYL-N′-[2-(METHYLAMINOMETHYL)QUINAZOLIN-4-YL]PROPANE-1,3-DIAMINE] |  | % Residual T @ 2 ug/mL according to scintillation proximity assay (SPA) [4]: C (% Residual T values of from 40% to less than 80%)
COc1ccc(/C=C/c2nc(NCCCN(C)C)c3ccccc3n2)cc1 [CP-31398, reference compound] |  | remaining activity at 2 µg/mL [2]: 61.3%
CN(C)CCCNc1nc(CN(C)Cc2cc3ccccc3o2)nc2ccccc12 [38-34] | 40 to 80 | 
CN(C)CCCNc1nc(CN(C)C/C=C/c2ccccc2)nc2ccccc12 [38-21] | ≥ 80 | 
CN(C)CCCNc1nc(CN(C)Cc2ccc(C#N)cc2)nc2ccccc12 [38-20] | 40 to 80 | 
CN(C)CCCNc1nc(CN(C)Cc2nccs2)nc2ccccc12 [38-10] | 20 to 40 | 
CN(C)CCCNc1nc(CN(C)Cc2ccc(Cl)cc2)nc2ccccc12 [38-30] | 40 to 80 | 
CCC(C)CN(C)Cc1nc(NCCCN(C)C)c2ccccc2n1 (stereo not drawn) [38-2] | 40 to 80 | 
CN(C)CCCNc1nc(CN(C)Cc2cccc(F)c2)nc2ccccc12 [38-16] | ≥ 80 | 
CN(C)CCCNc1nc(CN(C)Cc2cccs2)nc2ccccc12 [38-8] | ≥ 80 | 
COC(=O)[C@@H](Nc1nc(CNC(=O)Nc2ccccc2-c2ccccc2)nc2ccccc12)C(C)C [34-41] |  | remaining activity at 2 µg/mL [3]: 40 to 80%
CN(C)CCCNc1nc(CN(C)Cc2ccccc2)nc2ccccc12 [Preparative Example 19, N,N-dimethyl-N′-[2-{(N-methyl-N-benzylamino)methyl}quinazolin-4-yl]propane-1,3-diamine] |  | % Residual T @ 2 ug/mL according to scintillation proximity assay (SPA) [4]: B (% Residual T values of from 20% to less than 40%)
CC(CCN(C)Cc1nc(NCCCN(C)C)c2ccccc2n1)c1ccccc1 (stereo not drawn) [38-35] | ≥ 80 | 
Cc1cccc(C)c1CN(C)Cc1nc(NCCCN(C)C)c2ccccc2n1 [38-24] | ≥ 80 | 
COc1ccc(CN(C)Cc2nc(NCCCN(C)C)c3ccccc3n2)cc1 [38-27] | 40 to 80 | 
CC(C)CCN(C)Cc1nc(NCCCN(C)C)c2ccccc2n1 [38-1] | 20 to 40 | 
